Assay results: patent US6585963B1, “Nail compositions and methods of administering same” (Watson Pharmaceuticals, Inc., priority 2001, dated 2003)

Experiment: In vitro human cadaver nail flux study (modified Franz permeation cells)
Format: in vitro ADME
Description: The general methods for determining the in vitro nail flux are known in the art. See, for example, U.S. Pat. No. 5,696,164, and references cited therein.
In vitro human cadaver nail flux studies were conducted using modified Franz non-Jacketed permeation cells. The temperature of the nail surface was maintained at 32° C. by placing the cells in a circulating water bath positioned over a stirring module. Human fingernails or toenails were stored under frozen conditions in 0.02% (w/v) sodium azide solution or selected receiver medium. Nails that were greater than 1 cm^2 in area were used for the flux studies. Nails with dorsal side facing the donor compartment were sandwiched between two layers of a closed cell polyethylene foam film. Annular ring of 2.38 cm outer diameter and […] was cut from the backinig film. The area of the donut hole (0.97 cm^2) is large enough to provide complete contact with the receiver media. The purpose of the foam backing film was to prevent any leakage of receiver medium from the cell assembly. The nails were allowed to hydrate at 32° C. overnight with 0.02% (w/v) sodium azide solution in the receiver compartment.
The following morning, nail lacquer sufficient to cover the nail surface was placed onto the dorsal side of the nail. Alternatively, a fixed amount of the lacquer can also be used. Each nail was then loaded between the donor and receiver compartments of a diffusion cell, with the ventral side of nail facing the receiver compartment, and clamped in place. The duration of nail flux and retention study varied from 3 days to 3 weeks. At predetermined sampling intervals, the entire contents of the receiver compartment were collected for drug quantitation and the receiver compartment was filled with fresh receiver solution, taking care to eliminate any air bubbles at the skin/solution interface.
The cumulative amount of drug permeated per unit area at any time t (Qt, μg/cm^2) was determined as follows: [formula] […]

## CCCCCCCCCCCC(=O)N(CCO)CCO [L-DEA, Lauramide Diethanolamine (DEA)]
Examples II and III, 5% enhancer in Gantrez ES-335/FLC versus formulation without enhancer
  increase in flux rate: about 40%

## OC(Cn1cncn1)(Cn1cncn1)c1ccc(F)cc1F [fluconazole, Fluconazole]
Example I, using 3-5% triacetin versus formulation without enhancer
  enhancement of nail flux of fluconazole: about 100%
Example V, pretreatment with an N-methyl-pyrrolidone composition versus control solution
  increase in flux rate of fluconazole by pretreatment: about 70%
